In this experiment the target is human DGAT2 (hDGAT2) (Homo sapiens (Human), UniProt Q96PD7). Put plainly: DGAT2 Enzymatic Activity Assay. The format is biochemical. To be noted: membrane prep of Sf-9 insect cells expressing hDGAT2; 13C18-triolein product by LC/MS/MS. The method, boiled down: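 Membranes from Sf-9 cells infected with untagged hDGAT2 baculovirus (8 ng/μL) incubated at rt in 100 mM Tris pH 7.0, 20 mM MgCl2, 5% ethanol with 25 μM diolein and 5 μM 13C oleoyl-CoA. 13C18-triolein product quantified by LC/MS/MS against 13C21-triolein internal standard; IC50 by 4-parameter fit.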
Sequence of human DGAT2 (hDGAT2) (Q96PD7 whole entry): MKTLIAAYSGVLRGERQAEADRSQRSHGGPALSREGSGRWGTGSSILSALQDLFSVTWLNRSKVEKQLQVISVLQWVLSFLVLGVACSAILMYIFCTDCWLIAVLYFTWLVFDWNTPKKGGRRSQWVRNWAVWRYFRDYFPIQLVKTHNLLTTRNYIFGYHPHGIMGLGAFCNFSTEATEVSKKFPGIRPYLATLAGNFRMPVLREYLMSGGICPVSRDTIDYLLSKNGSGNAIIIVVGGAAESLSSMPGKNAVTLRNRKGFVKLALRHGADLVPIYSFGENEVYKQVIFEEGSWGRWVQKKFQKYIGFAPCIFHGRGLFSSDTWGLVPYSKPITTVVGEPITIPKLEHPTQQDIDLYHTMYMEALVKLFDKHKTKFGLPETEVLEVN
The molecule `Cc1cc(C(=O)N[C@@]2(C)CCS(=O)(=O)C2)cc2c1c(-c1cccc(OC(F)F)c1)nn2C1CCOCC1` [Example 84, (S)-3-(3-(difluoromethoxy)phenyl)-4-methyl-N-(3-methyl-1,1-dioxidotetrahydrothiophen-3-yl)-1-(tetrahydro-2H-pyran-4-yl)-1H-indazole-6-carboxamide] displayed an IC50 of 13 nM.

For `CC1(NC(=O)c2cnc3c(-c4cncc(OC(F)F)c4)nn(C4CCOCC4)c3c2)CS(=O)(=O)C1` [Example 64, 3-[5-(difluoromethoxy)-3-pyridyl]-N-(3-methyl-1,1-dioxo-thietan-3-yl)-1-tetrahydropyran-4-yl-pyrazolo[4,3-b]pyridine-6-carboxamide], 177 nM corresponded to half-maximal inhibition (IC50).

In turn, `N[C@@H]1CCC[C@@H]1NC(=O)c1cnc2c(-c3cccc(OC(F)F)c3)cn(-c3ncc(F)cn3)c2c1` [Example 23, N-((1S,2R)-2-aminocyclopentyl)-3-(3-(difluoromethoxy)phenyl)-1-(5-fluoropyrimidin-2-yl)-1H-pyrrolo[3,2-b]pyridine-6-carboxamide] returned an IC50 of 173 nM.

Regarding `C[C@]1(NC(=O)c2cnc3c(-c4cccc(OC(F)F)c4)nn(-c4ncc(F)cn4)c3c2)CCS(=O)(=O)C1` [Example 3, (S)-3-(3-(difluoromethoxy)phenyl)-1-(5-fluoropyrimidin-2-yl)-N-(3-methyl-1,1-dioxidotetrahydrothiophen-3-yl)-1H-pyrazolo[4,3-b]pyridine-6-carboxamide], the IC50 was 57 nM.

Regarding `CC(C)n1nc(-c2cccc(OC(F)F)c2)c2ncc(C(=O)N[C@H]3CCCC[C@@H]3O)cc21` [Example 40, 3-[3-(difluoromethoxy)phenyl]-N-[(1S,2S)-2-hydroxycyclohexyl]-1-isopropyl-pyrazolo[4,3-b]pyridine-6-carboxamide], the IC50 was found to be 17 nM.

In the case of `C[C@]1(NC(=O)c2cc3c(cn2)c(-c2cccc(OC(F)F)c2)cn3-c2ccc(F)cc2)CCS(=O)(=O)C1` [Example 15, (S)-3-(3-(difluoromethoxy)phenyl)-1-(4-fluorophenyl)-N-(3-methyl-1,1-dioxidotetrahydrothiophen-3-yl)-1H-pyrrolo[3,2-c]pyridine-6-carboxamide], the midpoint of inhibition, the IC50, lay at 23 nM.

`CC1(NC(=O)c2cnc3c(-c4cccc(OC(F)F)c4)nn(C4CCOCC4)c3c2)CS(=O)(=O)C1` [Example 63, 3-(3-(difluoromethoxy)phenyl)-N-(3-methyl-1,1-dioxidothietan-3-yl)-1-(tetrahydro-2H-pyran-4-yl)-1H-pyrazolo[4,3-b]pyridine-6-carboxamide] returned an IC50 of 18 nM.

`CC(O)C(C)NC(=O)c1cnc2c(-c3cccc(OC(F)F)c3)nn(C(C)C)c2c1` (centres unmarked) [Example 45a, 3-(3-(difluoromethoxy)phenyl)-N-(3-hydroxybutan-2-yl)-1-isopropyl-1H-pyrazolo[4,3-b]pyridme-6-carboxamide] came in with an IC50 of 23 nM.

For the molecule `CC(C)n1nc(-c2cncc(OC3CC3)c2)c2ncc(C(=O)NC3(C)CS(=O)(=O)C3)cc21` [Example 106, 3-(5-cyclopropoxypyridin-3-yl)-1-isopropyl-N-(3-methyl-1,1-dioxidothietan-3-yl)-1H-pyrazolo[4,3-b]pyridine-6-carboxamide], the IC50 stood at 46 nM.

`CC(C)n1nc(-c2cc(OC3CCC3)ccc2F)c2ncc(C(=O)NC3(C)CS(=O)(=O)C3)cc21` [Example 109, 3-(5-cyclobutoxy-2-fluorophenyl)-1-isopropyl-N-(3-methyl-1,1-dioxidothietan-3-yl)-1H-pyrazolo[4,3-b]pyridine-6-carboxamide] gave an IC50 of 11 nM.

`Cn1nccc1-c1nn(C2CCOCC2)c2cc(C(=O)N[C@@]3(C)CCS(=O)(=O)C3)cnc12` [Example 65, N-[(3S)-3-methyl-1,1-dioxo-thiolan-3-yl]-3-(2-methylpyrazol-3-yl)-1-tetrahydropyran-4-yl-pyrazolo[4,3-b]pyridine-6-carboxamide]: 10000 nM corresponded to half-maximal inhibition (IC50).

Consider `CC(C)n1nc(-c2cccc(OC(F)F)c2)c2ncc(C(=O)NC3(CO)CCOCC3)cc21` [Example 74, 3-(3-(difluoromethoxy)phenyl)-N-(4-(hydroxymethyl)tetrahydro-2H-pyran-4-yl)-1-isopropyl-1H-pyrazolo[4,3-b]pyridine-6-carboxamide], for which the IC50 came out at 64 nM.

The molecule `C[C@]1(NC(=O)c2cnc3c(-c4cccc(OC(F)F)c4)cn(C4CCOCC4)c3c2)CCS(=O)(=O)C1` [Example 81, (S)-3-(3-(difluoromethoxy)phenyl)-N-(3-methyl-1,1-dioxidotetrahydrothiophen-3-yl)-1-(tetrahydro-2H-pyran-4-yl)-1H-pyrrolo[3,2-b]pyridine-6-carboxamide] returned an IC50 of 208 nM.

`CC(C)(O)Cn1nc(-c2cccc(C3CC3)c2)c2ncc(C(=O)NC3(C)CS(=O)(=O)C3)cc21` [Example 112, 3-(3-cyclopropylphenyl)-1-(2-hydroxy-2-methylpropyl)-N-(3-methyl-1,1-dioxidothietan-3-yl)-1H-pyrazolo[4,3-b]pyridine-6-carboxamide] registered an IC50 of 6 nM.

With `CC(C)n1nc(-c2cccc(C(C)(F)F)c2)c2ncc(C(=O)NC3(C)CS(=O)(=O)C3)cc21` [Example 93, 3-[3-(1,1-difluoroethyl)phenyl]-1-isopropyl-N-(3-methyl-1,1-dioxo-thietan-3-yl)pyrazolo[4,3-b]pyridine-6-carboxamide], the IC50 is 210 nM.

As to `CCn1nc(-c2cccc(OC(F)F)c2)c2ncc(C(=O)NC3(C)CS(=O)(=O)C3)cc21` [Example 27, 3-(3-(difluoromethoxy)phenyl)-1-ethyl-N-(3-methyl-1,1-dioxidothietan-3-yl)-1H-pyrazolo[4,3-b]pyridine-6-carboxamide], the IC50 came to 111 nM.

`Cn1nccc1-c1cn(C2CCOCC2)c2cc(C(=O)N[C@@]3(C)CCS(=O)(=O)C3)c(F)cc12` [Example 83] showed an IC50 of 5430 nM.

In the case of `CC(C)n1nc(-c2cccc(OC(F)F)c2)c2ncc(C(=O)NC3(CO)CC(F)(F)C3)cc21` [Example 51, N-(3,3-difluoro-1-(hydroxymethyl)cyclobutyl)-3-(3-(difluoromethoxy)phenyl)-1-isopropyl-1H-pyrazolo[4,3-b]pyridine-6-carboxamide], the IC50 was 17 nM.

With `CC(C)[C@H](NC(=O)c1cnc2c(-c3cncc(OC(F)F)c3)nn(C(C)C)c2c1)[C@H](C)O` [Example 54, 3-(5-(difluoromethoxy)pyridin-3-yl)-N-((2S,3S)-2-hydroxy-4-methylpentan-3-yl)-1-isopropyl-1H-pyrazolo[4,3-b]pyridine-6-carboxamide], the IC50 came out at 13 nM.

Consider `CC(C)n1nc(-c2cc(OC(F)F)ccc2F)c2cnc(C(=O)NC3(C)CS(=O)(=O)C3)cc21` [Example 36, 3-(5-(difluoromethoxy)-2-fluorophenyl)-1-isopropyl-N-(3-methyl-1,1-dioxidothietan-3-yl)-1H-pyrazolo[4,3-c]pyridine-6-carboxamide], for which the IC50 amounted to 1.7 nM.
